The values that follow come from patent publication US20230092890A1, “1, 3, 4-Oxadiazole derivative compounds as histone deacetylase 6 inhibitor, and the pharmaceutical composition comprising the same” (Chong Kun Dang Pharmaceutical Corp., priority 2019, published 2023).

For one test, the target named is T1, HDAC6 human recombinant (Homo sapiens, UniProt Q9UBN7).
T1 construct: purchased Calbiochem 382180
T1 sequence (Q9UBN7 1-1215): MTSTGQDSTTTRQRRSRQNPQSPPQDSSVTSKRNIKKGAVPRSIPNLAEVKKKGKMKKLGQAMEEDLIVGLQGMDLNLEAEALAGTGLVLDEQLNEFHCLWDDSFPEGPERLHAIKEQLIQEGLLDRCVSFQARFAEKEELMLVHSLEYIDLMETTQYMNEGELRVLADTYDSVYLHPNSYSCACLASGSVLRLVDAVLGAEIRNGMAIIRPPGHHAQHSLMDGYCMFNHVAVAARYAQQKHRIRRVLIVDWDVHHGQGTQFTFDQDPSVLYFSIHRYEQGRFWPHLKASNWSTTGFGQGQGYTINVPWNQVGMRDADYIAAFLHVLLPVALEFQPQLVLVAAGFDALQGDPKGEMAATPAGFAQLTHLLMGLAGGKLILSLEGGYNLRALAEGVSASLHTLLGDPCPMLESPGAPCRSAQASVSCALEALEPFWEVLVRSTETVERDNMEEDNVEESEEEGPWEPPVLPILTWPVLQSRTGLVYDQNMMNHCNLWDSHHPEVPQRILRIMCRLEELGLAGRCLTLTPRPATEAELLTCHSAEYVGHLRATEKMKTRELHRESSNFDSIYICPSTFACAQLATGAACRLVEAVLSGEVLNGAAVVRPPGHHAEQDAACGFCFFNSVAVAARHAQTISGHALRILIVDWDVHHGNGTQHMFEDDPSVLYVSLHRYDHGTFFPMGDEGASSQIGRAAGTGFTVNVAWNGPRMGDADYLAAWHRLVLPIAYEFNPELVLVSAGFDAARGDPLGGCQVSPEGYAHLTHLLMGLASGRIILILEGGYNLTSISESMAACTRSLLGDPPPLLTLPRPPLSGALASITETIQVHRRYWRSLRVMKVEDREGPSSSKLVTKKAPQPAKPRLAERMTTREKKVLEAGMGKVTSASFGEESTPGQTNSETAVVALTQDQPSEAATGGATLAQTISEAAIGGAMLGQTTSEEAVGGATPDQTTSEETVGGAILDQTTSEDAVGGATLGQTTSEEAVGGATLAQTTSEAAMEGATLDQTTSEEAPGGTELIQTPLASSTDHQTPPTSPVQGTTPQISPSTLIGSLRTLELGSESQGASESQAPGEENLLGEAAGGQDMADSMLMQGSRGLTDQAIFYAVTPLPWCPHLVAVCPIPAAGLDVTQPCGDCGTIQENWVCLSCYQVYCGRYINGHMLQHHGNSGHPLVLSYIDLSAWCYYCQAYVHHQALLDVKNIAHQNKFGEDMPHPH
Briefly: HDAC enzyme activity inhibition (in vitro), HDAC6 assay. In kind it is biochemical. As to conditions: samples at 0.1, 1, 10, 100 and 1000 nM; 37° C. 60 minutes; fluorescence Ex 390, Em 460; read-out: HDAC6 IC50. The procedure, abridged:
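HDAC6 human recombinant enzyme with fluorimetric substrate; […]. Reaction 60 min at 37° C, then developer 30 min at 37° C; fluorescence read at Ex 390/Em 460.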

The target in another test is T2, HDAC1 (Homo sapiens, UniProt Q13547).
T2 construct: purchased Enzolifesciences BML-AK511
T2 sequence (Q13547 whole entry): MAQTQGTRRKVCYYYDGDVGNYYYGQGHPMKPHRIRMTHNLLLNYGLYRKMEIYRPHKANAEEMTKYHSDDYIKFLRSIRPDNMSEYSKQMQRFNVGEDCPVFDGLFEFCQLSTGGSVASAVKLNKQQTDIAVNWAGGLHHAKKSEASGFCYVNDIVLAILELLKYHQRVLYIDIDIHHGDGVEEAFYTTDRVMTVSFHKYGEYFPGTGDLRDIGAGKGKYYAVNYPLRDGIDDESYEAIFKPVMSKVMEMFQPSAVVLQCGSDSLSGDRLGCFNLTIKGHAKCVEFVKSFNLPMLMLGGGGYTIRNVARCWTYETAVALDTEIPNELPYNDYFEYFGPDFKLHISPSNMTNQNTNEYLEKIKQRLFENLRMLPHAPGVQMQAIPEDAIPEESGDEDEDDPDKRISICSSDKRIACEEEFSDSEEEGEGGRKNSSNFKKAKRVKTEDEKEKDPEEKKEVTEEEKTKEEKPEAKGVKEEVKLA
In words: HDAC enzyme activity inhibition (in vitro), HDAC1 Fluorimetric Drug Discovery Assay Kit. As to conditions: samples at 100, 1000 and 10000 nM; 37° C. 60 minutes; fluorescence Ex 390, Em 460; read-out: HDAC1 IC50. In kind it is biochemical. The procedure, abridged:
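Compound incubated with enzyme 60 min at 37° C, then developer 30 min at 37° C; fluorescence read at Ex 390/Em 460. HDAC1 via fluorimetric kit, compounds at 100, 1000 and 10000 nM; HDAC6 human recombinant, compounds at 0.1, 1, 10, 100 and 1000 nM.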

Usually IC50 stands for the concentration that gives 50% inhibition. On to `CN1CCC(n2c(=O)n(Cc3ccc(-c4nnc(C(F)F)o4)cn3)c3ccc(Cl)cc32)CC1` [Compound 97, 5-chloro-1-((5-(5-(difluoromethyl)-1,3,4-oxadiazole-2-yl)pyridine-2-yl)methyl)-3-(1-methylpiperidine-4-yl)-1,3-dihydro-2H-benzo[d]imidazole-2-one], for which the IC50 on HDAC6 human recombinant is 32 nM; at HDAC1, greater than 10000 nM.
Regarding `O=c1n(Cc2ccc(-c3nnc(C(F)F)o3)cn2)c2ccc(Cl)cc2n1C1CCN(C2COC2)CC1` [Compound 98, 5-chloro-1-((5-(5-(difluoromethyl)-1,3,4-oxadiazole-2-yl)pyridine-2-yl)methyl)-3-(1-(oxetan-3-yl)piperidine-4-yl)-1,3-dihydro-2H-benzo[d]imidazole-2-one], the IC50 is 28 nM at HDAC6 human recombinant and greater than 10000 nM at HDAC1.
For `CN1CCC(n2c(=O)n(Cc3ccc(-c4nnc(C(F)F)o4)cc3)c3ccc(Cl)cc32)CC1` [Compound 99, 5-chloro-1-(4-(5-(difluoromethyl)-1,3,4-oxadiazole-2-yl)benzyl)-3-(1-methylpiperidine-4-yl)-1,3-dihydro-2H-benzo[d]imidazole-2-one], the IC50 on HDAC6 human recombinant was 37 nM; at HDAC1 it was greater than 10000 nM.
Turning to `O=c1n(Cc2ccc(-c3nnc(C(F)F)o3)cc2)c2ccc(Cl)cc2n1C1CCN(C2COC2)CC1` [Compound 100, 5-chloro-1-(4-(5-(difluoromethyl)-1,3,4-oxadiazole-2-yl)benzyl)-3-(1-(oxetan-3-yl)piperidine-4-yl)-1,3-dihydro-2H-benzo[d]imidazole-2-one], the IC50 is 39 nM at HDAC6 human recombinant and greater than 10000 nM on HDAC1.
As to `CN1CCC(n2c(=O)n(Cc3ccc(-c4nnc(C(F)F)o4)cc3F)c3ccc(Cl)cc32)CC1` [Compound 101, 5-chloro-1-(4-(5-(difluoromethyl)-1,3,4-oxadiazole-2-yl)-2-fluorobenzyl)-3-(1-methylpiperidine-4-yl)-1,3-dihydro-2H-benzo[d]imidazole-2-one], the IC50 is 44 nM on HDAC6 human recombinant and greater than 10000 nM on HDAC1.
Turning to `O=c1n(Cc2ccc(-c3nnc(C(F)F)o3)cc2F)c2ccc(Cl)cc2n1C1CCN(C2COC2)CC1` [Compound 102, 5-chloro-1-(4-(5-(difluoromethyl)-1,3,4-oxadiazole-2-yl)-2-fluorobenzyl)-3-(1-(oxetan-3-yl)piperidine-4-yl)-1,3-dihydro-2H-benzo[d]imidazole-2-one], the IC50 at HDAC6 human recombinant is 59 nM; at HDAC1, greater than 10000 nM.
Regarding `CN1CCC(n2c(=O)n(Cc3ccc(-c4nnc(C(F)F)o4)cc3F)c3ncccc32)CC1` [Compound 103, 3-(4-(5-(difluoromethyl)-1,3,4-oxadiazole-2-yl)-2-fluorobenzyl)-1-(1-methylpiperidine-4-yl)-1,3-dihydro-2H-imidazo[4,5-b]pyridine-2-one], the values for the IC50 on HDAC6 human recombinant and on HDAC1 were 342 nM and greater than 10000 nM, respectively.
Take `O=c1n(Cc2ccc(-c3nnc(C(F)F)o3)cc2F)c2ncccc2n1C1CCN(C2COC2)CC1` [Compound 104, 3-(4-(5-(difluoromethyl)-1,3,4-oxadiazole-2-yl)-2-fluorobenzyl)-1-(1-(oxetan-3-yl)piperidine-4-yl)-1,3-dihydro-2H-imidazo[4,5-b]pyridine-2-one]: the figures for the IC50 on HDAC6 human recombinant and on HDAC1 were 283 nM and greater than 10000 nM, respectively.
The matching figures for `CN1CCC(n2c(=O)n(Cc3ccc(-c4nnc(C(F)F)o4)cc3)c3ncccc32)CC1` [Compound 105, 3-(4-(5-(difluoromethyl)-1,3,4-oxadiazole-2-yl)benzyl)-1-(1-methylpiperidine-4-yl)-1,3-dihydro-2H-imidazo[4,5-b]pyridine-2-one]: 640 nM and greater than 10000 nM.
Turning to `O=c1n(Cc2ccc(-c3nnc(C(F)F)o3)cc2)c2ncccc2n1C1CCN(C2COC2)CC1` [Compound 106, 3-(4-(5-(difluoromethyl)-1,3,4-oxadiazole-2-yl)benzyl)-1-(1-(oxetan-3-yl)piperidine-4-yl)-1,3-dihydro-2H-imidazo[4,5-b]pyridine-2-one], the IC50 on HDAC6 human recombinant was 391 nM; on HDAC1, greater than 10000 nM.
Turning to `CN1CCC(n2c(=O)n(Cc3ccc(-c4nnc(C(F)F)o4)cn3)c3ncccc32)CC1` [Compound 107, 3-((5-(5-(difluoromethyl)-1,3,4-oxadiazole-2-yl)pyridine-2-yl)methyl)-1-(1-methylpiperidine-4-yl)-1,3-dihydro-2H-imidazo[4,5-b]pyridine-2-one], the IC50 is 174 nM at HDAC6 human recombinant and greater than 10000 nM at HDAC1.
In the case of `O=c1n(Cc2ccc(-c3nnc(C(F)F)o3)cn2)c2ncccc2n1C1CCN(C2COC2)CC1` [Compound 108], the concentration for half-maximal inhibition (IC50) at HDAC6 human recombinant is 148 nM; on HDAC1 it was greater than 10000 nM.
Consider `O=c1n(Cc2ccc(-c3nnc(C(F)(F)F)o3)cn2)c2ccccc2n1C1CC2(COC2)C1` [Compound 109, 1-(2-oxaspiro[3.3]heptane-6-yl)-3-((5-(5-(trifluoromethyl)-1,3,4-oxadiazole-2-yl)pyridine-2-yl)methyl)-1,3-dihydro-2H-benzo[d]imidazole-2-one], for which the IC50 at HDAC6 human recombinant is 623 nM; at HDAC1 it was greater than 10000 nM.
For `Cn1c(=O)n(Cc2ccc(-c3nnc(C(F)F)o3)cc2F)c2cc(-c3cccnc3)ccc21` [Compound 110, 3-(4-(5-(difluoromethyl)-1,3,4-oxadiazole-2-yl)-2-fluorobenzyl)-1-methyl-5-(pyridine-3-yl)-1,3-dihydro-2H-benzo[d]imidazole-2-one] the same measures were 234 nM and greater than 10000 nM.
For `Cn1c(=O)n(Cc2ccc(-c3nnc(C(F)F)o3)cc2F)c2cc(-c3ccncc3)ccc21` [Compound 111, 3-(4-(5-(difluoromethyl)-1,3,4-oxadiazole-2-yl)-2-fluorobenzyl)-1-methyl-5-(pyridine-4-yl)-1,3-dihydro-2H-benzo[d]imidazole-2-one], the IC50 on HDAC6 human recombinant was 322 nM; on HDAC1 it was greater than 10000 nM.
Take `Cn1c(=O)n(Cc2ccc(-c3nnc(C(F)F)o3)cc2F)c2cc(-c3cccc(F)c3)ccc21` [Compound 112, 3-(4-(5-(difluoromethyl)-1,3,4-oxadiazole-2-yl)-2-fluorobenzyl)-5-(3-fluorophenyl)-1-m ethyl-1,3-dihydro-2H-benzo[d]imidazole-2-one]: the IC50 at HDAC6 human recombinant is 864 nM; at HDAC1, greater than 10000 nM.
For `CN1CCC(n2c(=O)n(Cc3ccc(-c4nnc(C(F)F)o4)cc3F)c3cc(F)c(Br)cc32)CC1` [Compound 113, 5-bromo-1-(4-(5-(difluoromethyl)-1,3,4-oxadiazole-2-yl)-2-fluorobenzyl)-6-fluoro-3-(1-methylpiperidine-4-yl)-1,3-dihydro-2H-benzo[d]imidazole-2-one] the same measures were 65 nM and greater than 10000 nM.
On to `CN1CCC(n2c(=O)n(Cc3ccc(-c4nnc(C(F)F)o4)cc3F)c3cc(F)c(-c4ccco4)cc32)CC1` [Compound 114, 1-(4-(5-(difluoromethyl)-1,3,4-oxadiazole-2-yl)-2-fluorobenzyl)-6-fluoro-5-(furan-2-yl)-3-(1-methylpiperidine-4-yl)-1,3-dihydro-2H-benzo[d]imidazole-2-one], for which the results for the IC50 at HDAC6 human recombinant and at HDAC1 were 88 nM and greater than 10000 nM, respectively.
On to `CN1CCC(n2c(=O)n(Cc3ccc(-c4nnc(C(F)F)o4)cc3F)c3cc(F)c(-c4ccoc4)cc32)CC1` [Compound 115, 1-(4-(5-(difluoromethyl)-1,3,4-oxadiazole-2-yl)-2-fluorobenzyl)-6-fluoro-5-(furan-3-yl)-3-(1-methylpiperidine-4-yl)-1,3-dihydro-2H-benzo[d]imidazole-2-one], for which the figures for the IC50 at HDAC6 human recombinant and at HDAC1 were 77 nM and greater than 10000 nM, respectively.
